Reference: patent US20240158446A1, “CYCLIC COMPOUND HAVING SELECTIVE INHIBITORY ACTION ON KRAS OVER HRAS AND NRAS” (CHUGAI SEIYAKU KABUSHIKI KAISHA, priority 2021, published 2024)

Assays:
[1] = biological target: GDP-bound NRAS wild-type protein (Homo sapiens, UniProt P01111); experiment: Binding to NRAS by surface plasmon resonance (SPR), Single Cycle Kinetics; settings: ratio of KD for GDP-bound NRAS wild-type protein to KD for KRAS, SPR
[2] = biological target: GDP-bound HRAS wild-type protein (Homo sapiens, UniProt P01112); experiment: Binding to HRAS by surface plasmon resonance (SPR), Single Cycle Kinetics; settings: ratio of KD for GDP-bound HRAS wild-type protein to KD for KRAS, SPR
Sequence of GDP-bound HRAS wild-type protein (P01112 whole entry): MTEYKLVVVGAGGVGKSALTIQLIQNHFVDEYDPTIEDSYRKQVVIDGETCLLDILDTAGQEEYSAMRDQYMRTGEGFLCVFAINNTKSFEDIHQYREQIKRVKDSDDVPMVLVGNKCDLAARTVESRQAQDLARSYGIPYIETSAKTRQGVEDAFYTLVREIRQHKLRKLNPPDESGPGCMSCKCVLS

[3] = tested on: human lung cancer strain NCI-H441; experiment: cells; settings: NCI-H441, 96 h, read-out: NCI-H441 IC50 (nM), NCI-H441 cell proliferation, 4 days, CellTiter-Glo;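 note: cell proliferation inhibition after four days measured by CellTiter-Glo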

Sequence of GDP-bound NRAS wild-type protein (P01111 whole entry): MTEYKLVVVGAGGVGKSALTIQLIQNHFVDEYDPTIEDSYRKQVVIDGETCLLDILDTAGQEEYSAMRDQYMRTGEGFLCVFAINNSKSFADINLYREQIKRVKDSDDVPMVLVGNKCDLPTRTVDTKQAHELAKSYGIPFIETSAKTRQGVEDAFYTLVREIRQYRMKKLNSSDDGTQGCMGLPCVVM

| IC50 [3] [nM] | Structure (SMILES) | NRAS/KRAS (KD ratio) [1] | HRAS/KRAS (KD ratio) [2] |
| --- | --- | --- | --- |
| 6.8 | CCO[C@@H]1C[C@H]2C(=O)NC(C)(C)C(=O)N(C)[C@@H](C3CCCC3)C(=O)N(C)[C@H](C(=O)N(C)CC)CC(=O)N(C)[C@@H](CC(C)C)C(=O)N[C@@H]([C@@H](C)CC)C(=O)N(C)CC(=O)N(C)[C@H]3C/C=C\CCN(C3=O)[C@@H](Cc3ccc(C(F)(F)F)cc3)C(=O)N(C)CC(=O)N[C@@H](CCc3cc(F)c(C(F)(F)F)c(F)c3)C(=O)N2C1 [PP1937] | A (a compound having 10 or more and less than 20 is denoted as A) | A (a compound having 10 or more and less than 20 is denoted as A) |
| 12.5 | CC[C@H](C)[C@@H]1NC(=O)[C@H](CC2CC2)N(C)C(=O)C[C@@H](C(=O)N(C)CC)N(C)C(=O)[C@H](C2CCCC2)N(C)C(=O)C2(CC(C)(C)C2)NC(=O)[C@@H]2C[C@@H](C)CN2C(=O)[C@H](CCc2ccc(C(F)(F)F)c(OC)c2)NC(=O)CN(C)C(=O)[C@H](Cc2ccc(C)cc2)N2CC/C=C\C[C@@H](C2=O)N(C)C(=O)CN(C)C1=O [PP1902] | A (a compound having 10 or more and less than 20 is denoted as A) | A (a compound having 10 or more and less than 20 is denoted as A) |
| 95.2 | CCO[C@@H]1C[C@H]2C(=O)NC3(CCC3)C(=O)N(C)[C@@H](C(CC)CC)C(=O)N(C)[C@H](C3CCC3)CC(=O)N(C)[C@@H](CC3CC3)C(=O)N[C@@H]([C@@H](C)CC)C(=O)N(C)CC(=O)N(C)[C@H]3C/C=C\CCN(C3=O)[C@@H](Cc3ccc(C(F)(F)F)cc3)C(=O)N(C)CC(=O)N[C@@H](CCc3cc(F)c(C(F)(F)F)c(F)c3)C(=O)N2C1 [PP1636] | A (a compound having 10 or more and less than 20 is denoted as A) | A (a compound having 10 or more and less than 20 is denoted as A) |
| 9.7 | CCO[C@@H]1C[C@H]2C(=O)NC3(CCC3)C(=O)N(C)[C@@H](C3CCCC3)C(=O)N(C)[C@H](C(=O)N(C)CC)CC(=O)N(C)[C@@H](CC(C)C)C(=O)N[C@@H]([C@@H](C)CC)C(=O)N(C)CC(=O)N(C)[C@H]3C/C=C\CCN(C3=O)[C@@H](Cc3ccc(C)cc3)C(=O)N(C)CC(=O)N[C@@H](CCc3ccc(C(F)(F)F)c(OC)c3)C(=O)N2C1 [PP1910] | A (a compound having 10 or more and less than 20 is denoted as A) | B (a compound having 3 or more and less than 10 is denoted as B) |
| 1.1 | CCCC[C@H]1C(=O)N[C@@H]([C@@H](C)CC)C(=O)N(C)CC(=O)N(C)[C@H]2C/C=C\CCN(C2=O)[C@@H](Cc2ccc(C(F)(F)F)cc2)C(=O)N(C)CC(=O)N[C@@H](CCc2cc(F)c(C(F)(F)F)c(F)c2)C(=O)N2C[C@H](F)C[C@H]2C(=O)NC2(CC(C)(C)C2)C(=O)N(C)[C@@H](C2CCCC2)C(=O)N(C)[C@H](C(=O)N(C)C)CC(=O)N1C [PP1693] | AA (a compound having 20 or more is denoted as AA) | A (a compound having 10 or more and less than 20 is denoted as A) |
| 10.3 | CCC[C@H]1C(=O)N[C@@H]([C@@H](C)CC)C(=O)N(C)CC(=O)N(C)[C@H]2C/C=C\CCN(C2=O)[C@@H](Cc2ccc(C)cc2)C(=O)N(C)CC(=O)N[C@@H](CCc2cc(F)c(C(F)(F)F)c(F)c2)C(=O)N2C[C@@H](C)C[C@H]2C(=O)NC2(CCC2)C(=O)N(C)[C@@H](C2CCCC2)C(=O)N(C)[C@H](C(=O)N(C)CC)CC(=O)N1C [PP1860] | A (a compound having 10 or more and less than 20 is denoted as A) | A (a compound having 10 or more and less than 20 is denoted as A) |
| 3.6 | CCC[C@H]1C(=O)N[C@@H]([C@@H](C)CC)C(=O)N(C)CC(=O)N(C)[C@H]2C/C=C\CCN(C2=O)[C@@H](Cc2ccc(C)cc2)C(=O)N(C)CC(=O)N[C@@H](CCc2ccc(C(F)(F)F)c(OC)c2)C(=O)N2C[C@H](C)C[C@H]2C(=O)NC2(CC(C)(C)C2)C(=O)N(C)[C@@H](C2CCCC2)C(=O)N(C)[C@H](C(=O)N(C)C)CC(=O)N1C [PP1890] | A (a compound having 10 or more and less than 20 is denoted as A) | B (a compound having 3 or more and less than 10 is denoted as B) |
| 25.7 | CC[C@H](C)[C@@H]1NC(=O)[C@H](CC2CC2)N(C)C(=O)C[C@@H](C(=O)N(C)C)N(C)C(=O)[C@H](C2CCCC2)N(C)C(=O)C2(CCC2)NC(=O)[C@@H]2C[C@H](C)CN2C(=O)[C@H](CCc2ccc(C(F)(F)F)c(OC)c2)NC(=O)CN(C)C(=O)[C@H](Cc2ccc(C)cc2)N2CC/C=C\C[C@@H](C2=O)N(C)C(=O)CN(C)C1=O [PP1861] | A (a compound having 10 or more and less than 20 is denoted as A) | B (a compound having 3 or more and less than 10 is denoted as B) |
| 3 | CCO[C@@H]1C[C@H]2C(=O)N(C)C3(CCC3)C(=O)N(C)[C@@H](C3CCCC3)C(=O)N(C)[C@H](C(=O)N(C)C)CC(=O)N(C)[C@@H](CC3CC3)C(=O)N[C@@H]([C@@H](C)CC)C(=O)N(C)CC(=O)N(C)[C@H]3C/C=C\CCN(C3=O)[C@@H](Cc3ccc(C)cc3)C(=O)N(C)CC(=O)N[C@@H](CCc3cc(F)c(C(F)(F)F)c(F)c3)C(=O)N2C1 [PP1795] | A (a compound having 10 or more and less than 20 is denoted as A) | B (a compound having 3 or more and less than 10 is denoted as B) |
| 3.5 | CCC[C@H]1C(=O)N[C@@H]([C@@H](C)CC)C(=O)N(C)CC(=O)N(C)[C@H]2C/C=C\CCN(C2=O)[C@@H](Cc2ccc(C)cc2)C(=O)N(C)CC(=O)N[C@@H](CCc2ccc(C(F)(F)F)c(OC)c2)C(=O)N2C[C@@H](C)C[C@H]2C(=O)NC2(CC(C)(C)C2)C(=O)N(C)[C@@H](C2CCCC2)C(=O)N(C)[C@H](C(=O)N(C)C)CC(=O)N1C [PP1888] | A (a compound having 10 or more and less than 20 is denoted as A) | B (a compound having 3 or more and less than 10 is denoted as B) |
| 14 | CCCOC[C@H]1C(=O)N[C@@H]([C@@H](C)CC)C(=O)N(C)CC(=O)N(C)[C@H]2C/C=C\CCN(C2=O)[C@@H](Cc2ccc(C(F)(F)F)cc2)C(=O)N(C)CC(=O)N[C@@H](CCc2ccc(C(F)(F)F)c(OC)c2)C(=O)N2C[C@@H](C)C[C@H]2C(=O)NC2(CCC2)C(=O)N(C)[C@@H](C2CCCC2)C(=O)N(C)[C@H](C(=O)N(C)CC)CC(=O)N1C [PP2027] | A (a compound having 10 or more and less than 20 is denoted as A) | B (a compound having 3 or more and less than 10 is denoted as B) |
| 17.5 | CCCOC[C@H]1C(=O)N[C@@H]([C@@H](C)CC)C(=O)N(C)CC(=O)N(C)[C@H]2C/C=C\CCN(C2=O)[C@@H](Cc2ccc(C(F)(F)F)cc2)C(=O)N(C)CC(=O)N[C@@H](CCc2ccc(C(F)(F)F)c(OC)c2)C(=O)N2C[C@@H](C)C[C@H]2C(=O)NC2(CCC2)C(=O)N(C)[C@@H](C2CCCC2)C(=O)N(C)[C@H](C(=O)N(C)CCC)CC(=O)N1C [PP2028] | A (a compound having 10 or more and less than 20 is denoted as A) | B (a compound having 3 or more and less than 10 is denoted as B) |
